Usually EC50 stands for the concentration needed to bring the measured effect to its halfway point. One may read the IC50 as the concentration needed to halve the response being measured. One may read the AC50 as the midpoint of the concentration-response curve, whichever way the signal moves.

SMILES strings stand for the structures. Active and inactive are the calls of the source.

In experiment [1] the target is T1, RNA-binding protein pos-1 (Caenorhabditis elegans, UniProt G5EF15).
T1 sequence (G5EF15 whole entry): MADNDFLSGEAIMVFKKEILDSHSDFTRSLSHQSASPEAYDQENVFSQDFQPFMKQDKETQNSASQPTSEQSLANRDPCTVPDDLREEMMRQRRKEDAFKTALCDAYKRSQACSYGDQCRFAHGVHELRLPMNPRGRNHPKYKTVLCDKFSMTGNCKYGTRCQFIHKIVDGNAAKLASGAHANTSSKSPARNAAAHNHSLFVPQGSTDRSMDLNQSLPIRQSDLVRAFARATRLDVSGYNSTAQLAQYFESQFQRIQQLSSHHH
The experiment is described as follows: inhibitors of POS-1/mex-3 RNA binding, dose response, biochemical, fluorescence polarization (AID 1964).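 Note: purified POS-1 fused to maltose binding protein made in E. coli; potency of compounds blocking POS-1 binding to fluorescent RNA.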

In another experiment the target is T2, Aspartyl aminopeptidase (Plasmodium falciparum 3D7, UniProt Q8I2J3).
T2 sequence (Q8I2J3 whole entry): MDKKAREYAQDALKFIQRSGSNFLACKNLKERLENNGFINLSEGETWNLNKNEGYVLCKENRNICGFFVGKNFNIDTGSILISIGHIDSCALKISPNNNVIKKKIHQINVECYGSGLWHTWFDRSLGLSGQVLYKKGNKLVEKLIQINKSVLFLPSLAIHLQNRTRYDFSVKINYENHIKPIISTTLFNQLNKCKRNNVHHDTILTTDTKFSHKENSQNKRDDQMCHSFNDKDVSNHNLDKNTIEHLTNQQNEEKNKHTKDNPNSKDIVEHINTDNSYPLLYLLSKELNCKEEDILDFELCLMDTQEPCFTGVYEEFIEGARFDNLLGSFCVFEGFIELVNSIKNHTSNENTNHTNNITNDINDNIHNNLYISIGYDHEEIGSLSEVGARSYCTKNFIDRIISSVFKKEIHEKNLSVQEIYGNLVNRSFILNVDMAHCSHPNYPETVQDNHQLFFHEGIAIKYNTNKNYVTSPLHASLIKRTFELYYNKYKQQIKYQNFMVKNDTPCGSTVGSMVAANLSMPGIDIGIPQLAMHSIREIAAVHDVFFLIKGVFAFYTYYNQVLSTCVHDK

Another experiment addresses Procathepsin L (Homo sapiens, UniProt P07711).
In experiment [2] the target is T3, Zinc finger protein mex-5 (Caenorhabditis elegans, UniProt Q9XUB2).
T3 sequence (Q9XUB2 whole entry): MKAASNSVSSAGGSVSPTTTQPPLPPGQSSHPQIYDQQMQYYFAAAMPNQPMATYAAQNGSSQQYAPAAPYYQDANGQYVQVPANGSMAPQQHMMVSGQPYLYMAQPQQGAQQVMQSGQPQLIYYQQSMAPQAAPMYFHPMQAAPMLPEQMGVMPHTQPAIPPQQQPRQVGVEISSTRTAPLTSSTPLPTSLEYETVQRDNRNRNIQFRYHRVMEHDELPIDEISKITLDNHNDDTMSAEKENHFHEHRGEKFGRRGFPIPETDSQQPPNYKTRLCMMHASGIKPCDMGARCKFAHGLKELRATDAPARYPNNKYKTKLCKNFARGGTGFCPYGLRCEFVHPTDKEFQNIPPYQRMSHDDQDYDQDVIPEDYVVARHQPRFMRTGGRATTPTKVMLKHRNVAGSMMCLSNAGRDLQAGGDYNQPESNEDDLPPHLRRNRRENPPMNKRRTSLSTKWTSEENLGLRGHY
The experiment is described as follows: MEX-5/TCR-2 RNA interaction inhibitors, dose response, biochemical, C. elegans, fluorescence polarization (AID 1960).

Another experiment deals with Large T antigen (Simian virus 40, UniProt P03070). The format is functional, Betapolyomavirus macacae.
Sequence of Large T antigen (P03070 whole entry): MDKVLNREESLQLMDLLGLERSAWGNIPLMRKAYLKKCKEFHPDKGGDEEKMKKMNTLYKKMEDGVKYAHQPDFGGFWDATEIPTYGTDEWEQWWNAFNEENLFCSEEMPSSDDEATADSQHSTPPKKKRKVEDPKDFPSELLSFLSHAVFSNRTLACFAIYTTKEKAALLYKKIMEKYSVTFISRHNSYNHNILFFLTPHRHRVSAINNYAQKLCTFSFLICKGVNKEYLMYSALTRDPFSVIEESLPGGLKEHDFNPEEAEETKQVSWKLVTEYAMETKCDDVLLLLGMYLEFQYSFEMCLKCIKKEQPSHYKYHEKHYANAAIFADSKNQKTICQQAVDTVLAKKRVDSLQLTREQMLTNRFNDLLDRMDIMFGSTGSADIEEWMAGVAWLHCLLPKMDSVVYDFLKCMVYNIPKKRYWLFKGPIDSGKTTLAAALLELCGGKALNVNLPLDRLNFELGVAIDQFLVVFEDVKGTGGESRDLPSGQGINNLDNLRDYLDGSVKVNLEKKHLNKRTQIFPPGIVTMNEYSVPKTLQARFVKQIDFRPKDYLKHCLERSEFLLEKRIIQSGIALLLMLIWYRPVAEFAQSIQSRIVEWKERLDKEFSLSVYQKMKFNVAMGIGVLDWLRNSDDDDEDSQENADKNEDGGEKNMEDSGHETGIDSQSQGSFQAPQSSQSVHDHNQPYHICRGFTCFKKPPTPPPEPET
Experiment [3] deals with Intestinal-type alkaline phosphatase (Mus musculus, UniProt P24822). The experiment is described as follows: PubChem AID 488785. Type of experiment: functional.
Sequence of Intestinal-type alkaline phosphatase (Mus musculus, UniProt P24822) (P24822 whole entry): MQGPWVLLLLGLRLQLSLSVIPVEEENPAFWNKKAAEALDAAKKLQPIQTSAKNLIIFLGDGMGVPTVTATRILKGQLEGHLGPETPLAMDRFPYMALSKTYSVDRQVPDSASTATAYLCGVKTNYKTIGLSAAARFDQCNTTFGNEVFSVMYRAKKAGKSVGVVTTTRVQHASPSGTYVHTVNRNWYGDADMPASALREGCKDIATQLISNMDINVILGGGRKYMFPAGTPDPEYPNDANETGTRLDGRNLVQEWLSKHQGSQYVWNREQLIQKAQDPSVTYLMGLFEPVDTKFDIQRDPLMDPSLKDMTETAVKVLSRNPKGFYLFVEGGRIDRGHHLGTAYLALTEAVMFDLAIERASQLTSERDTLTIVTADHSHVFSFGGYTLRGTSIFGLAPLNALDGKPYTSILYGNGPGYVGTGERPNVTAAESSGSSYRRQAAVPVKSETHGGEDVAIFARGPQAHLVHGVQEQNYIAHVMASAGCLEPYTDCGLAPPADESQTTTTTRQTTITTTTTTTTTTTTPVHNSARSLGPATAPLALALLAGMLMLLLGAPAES
Experiment [4] addresses FAD-linked sulfhydryl oxidase ALR (Homo sapiens, UniProt P55789). The experiment is described as follows: inhibitors of human ALR sulfhydryl oxidase, dose response, biochemical, H2O2 detection, luminescence, cherry-pick (AID 493248).
Experiment [5] concerns the target T4, Alkaline phosphatase, tissue-nonspecific isozyme (Homo sapiens, UniProt P05186).
T4 sequence (P05186 whole entry): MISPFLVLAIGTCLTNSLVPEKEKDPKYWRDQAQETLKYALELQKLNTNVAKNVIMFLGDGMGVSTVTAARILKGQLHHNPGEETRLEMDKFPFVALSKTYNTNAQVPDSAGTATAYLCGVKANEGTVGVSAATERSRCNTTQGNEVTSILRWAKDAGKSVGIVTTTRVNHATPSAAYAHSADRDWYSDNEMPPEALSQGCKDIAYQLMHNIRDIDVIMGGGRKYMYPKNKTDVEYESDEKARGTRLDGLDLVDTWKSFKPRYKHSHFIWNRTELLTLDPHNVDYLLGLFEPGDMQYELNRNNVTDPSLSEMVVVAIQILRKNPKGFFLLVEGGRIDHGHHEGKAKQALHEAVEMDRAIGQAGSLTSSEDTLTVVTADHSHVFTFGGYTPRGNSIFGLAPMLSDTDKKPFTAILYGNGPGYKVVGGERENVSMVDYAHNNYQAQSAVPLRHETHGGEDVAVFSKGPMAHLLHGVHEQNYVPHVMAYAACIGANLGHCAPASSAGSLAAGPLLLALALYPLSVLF
The experiment is described as follows: TNAP enzyme inhibition by screening hits, dose response, selectivity assay for mouse IAP inhibitor project, biochemical, human TNAP, uHTS hits (AID 488906). The format is functional.

For experiment [6], the target named is Intestinal-type alkaline phosphatase (Homo sapiens, UniProt P09923). The experiment is described as follows: inhibition of human intestinal alkaline phosphatase – biochemical, dose response (AID 488876). Type of experiment: functional.
Sequence of Intestinal-type alkaline phosphatase (Homo sapiens, UniProt P09923) (P09923 whole entry, the tested form may be a part): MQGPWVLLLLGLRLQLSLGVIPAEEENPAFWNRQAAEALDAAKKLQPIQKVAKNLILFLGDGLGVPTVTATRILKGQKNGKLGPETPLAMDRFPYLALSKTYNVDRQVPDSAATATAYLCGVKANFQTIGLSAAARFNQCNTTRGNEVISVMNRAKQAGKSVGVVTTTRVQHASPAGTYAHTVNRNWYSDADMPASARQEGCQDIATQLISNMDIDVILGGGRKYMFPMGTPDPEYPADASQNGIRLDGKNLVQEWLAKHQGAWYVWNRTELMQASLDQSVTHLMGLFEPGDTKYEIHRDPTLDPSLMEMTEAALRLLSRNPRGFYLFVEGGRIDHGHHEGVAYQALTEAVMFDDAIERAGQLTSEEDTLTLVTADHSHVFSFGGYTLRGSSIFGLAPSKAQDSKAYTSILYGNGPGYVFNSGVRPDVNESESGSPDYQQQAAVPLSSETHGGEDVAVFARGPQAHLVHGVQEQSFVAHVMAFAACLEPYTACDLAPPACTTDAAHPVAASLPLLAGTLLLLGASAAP
Experiment [7] addresses T5, Carboxy-terminal domain RNA polymerase II polypeptide A small phosphatase 1 (Homo sapiens, UniProt Q9GZU7).
T5 sequence (Q9GZU7 whole entry): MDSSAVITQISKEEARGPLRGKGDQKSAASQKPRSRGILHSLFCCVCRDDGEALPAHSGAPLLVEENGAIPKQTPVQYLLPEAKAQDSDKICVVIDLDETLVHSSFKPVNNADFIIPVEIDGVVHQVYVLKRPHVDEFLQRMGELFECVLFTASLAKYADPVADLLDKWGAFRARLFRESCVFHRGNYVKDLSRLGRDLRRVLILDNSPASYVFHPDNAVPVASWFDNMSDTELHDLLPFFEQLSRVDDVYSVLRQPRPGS
The experiment is described as follows: inhibitors of CTDSP1, concentration-response testing, biochemical assay, absorbance-based, actives from ultra-high-throughput screening (AID 540297). Type of experiment: functional.

In experiment [8] the target is T6, Heat shock factor protein 1 (Mus musculus, UniProt P38532).
T6 sequence (P38532 whole entry): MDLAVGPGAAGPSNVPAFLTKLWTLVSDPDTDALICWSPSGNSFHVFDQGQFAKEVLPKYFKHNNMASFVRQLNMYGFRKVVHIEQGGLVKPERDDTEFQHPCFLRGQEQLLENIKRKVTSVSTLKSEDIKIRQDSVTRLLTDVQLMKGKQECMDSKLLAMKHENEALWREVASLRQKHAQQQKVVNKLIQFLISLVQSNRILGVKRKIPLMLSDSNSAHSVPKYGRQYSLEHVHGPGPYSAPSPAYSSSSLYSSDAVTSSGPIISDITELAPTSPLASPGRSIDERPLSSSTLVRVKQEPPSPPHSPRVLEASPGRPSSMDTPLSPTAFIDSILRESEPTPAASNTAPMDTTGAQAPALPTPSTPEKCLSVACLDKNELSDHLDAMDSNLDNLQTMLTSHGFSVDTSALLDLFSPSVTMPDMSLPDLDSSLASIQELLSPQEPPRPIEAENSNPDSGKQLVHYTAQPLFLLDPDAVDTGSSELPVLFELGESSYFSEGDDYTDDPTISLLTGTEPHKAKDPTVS
The experiment can be described thus: HSF1 potentiators in luciferase reporter cells, confirmation, cell-based, NIH3T3, luminescence, dose retest (AID 435004).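 Note: stress induced by proteasome inhibitor MG132 added 30 min after compound; luciferase reporter driven by HSF1 response element in NIH3T3 cells; actives raise luminescence as potentiators of the MG132 stress response.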 Type of experiment: functional. (In a reporter assay the amount or activity of a reporter protein is the signal.)

The target in the next experiment is Genome polyprotein (dengue virus type 2, UniProt P29990). The experiment can be described thus: Dengue-2 NS5 methyltransferase inhibitors, primary screen, biochemical, confirmation dose response (AID 588689). Type of experiment: functional.
Sequence of Genome polyprotein (P29990 2492-3391 limits assumed): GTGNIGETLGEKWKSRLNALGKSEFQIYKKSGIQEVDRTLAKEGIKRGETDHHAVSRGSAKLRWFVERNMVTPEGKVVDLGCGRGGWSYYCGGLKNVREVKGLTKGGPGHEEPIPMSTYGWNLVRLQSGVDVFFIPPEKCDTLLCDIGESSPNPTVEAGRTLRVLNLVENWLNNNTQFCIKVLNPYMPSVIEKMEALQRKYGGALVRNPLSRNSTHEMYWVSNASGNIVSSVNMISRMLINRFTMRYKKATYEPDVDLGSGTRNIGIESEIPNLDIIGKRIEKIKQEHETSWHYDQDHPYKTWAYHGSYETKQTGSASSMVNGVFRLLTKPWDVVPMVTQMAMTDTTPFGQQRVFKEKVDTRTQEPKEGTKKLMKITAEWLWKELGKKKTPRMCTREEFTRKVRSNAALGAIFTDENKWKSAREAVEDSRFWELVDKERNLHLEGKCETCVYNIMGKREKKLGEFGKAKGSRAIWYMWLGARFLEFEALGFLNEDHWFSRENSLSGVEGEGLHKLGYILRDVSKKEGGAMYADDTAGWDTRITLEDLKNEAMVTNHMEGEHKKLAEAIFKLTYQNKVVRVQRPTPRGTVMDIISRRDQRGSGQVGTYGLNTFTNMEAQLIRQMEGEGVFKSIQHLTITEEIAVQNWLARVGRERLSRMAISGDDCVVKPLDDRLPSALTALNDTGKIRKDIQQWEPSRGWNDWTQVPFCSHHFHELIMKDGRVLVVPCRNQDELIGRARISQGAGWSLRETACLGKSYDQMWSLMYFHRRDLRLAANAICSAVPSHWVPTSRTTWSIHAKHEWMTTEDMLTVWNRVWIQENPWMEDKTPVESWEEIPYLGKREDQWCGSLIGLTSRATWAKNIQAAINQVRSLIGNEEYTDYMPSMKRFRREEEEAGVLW
The target in the next experiment is Tumor necrosis factor (Homo sapiens, UniProt P01375). The experiment can be described thus: TNFa-triggered NF-kB activation inhibitors, SAR follow-up, cell-based, revised (AID 2337). Type of experiment: functional.
Sequence of Tumor necrosis factor (P01375 whole entry, the tested form may be a part): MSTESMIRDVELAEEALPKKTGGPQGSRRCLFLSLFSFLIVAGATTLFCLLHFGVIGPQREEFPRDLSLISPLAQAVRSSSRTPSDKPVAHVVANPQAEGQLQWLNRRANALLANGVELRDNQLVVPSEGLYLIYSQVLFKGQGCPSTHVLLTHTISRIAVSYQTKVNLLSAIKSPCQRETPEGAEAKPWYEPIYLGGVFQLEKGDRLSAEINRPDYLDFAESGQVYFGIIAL
Experiment [9] concerns the target T7, Nucleotide-binding oligomerization domain-containing protein 1 (Homo sapiens, UniProt Q9Y239).
T7 sequence (Q9Y239 whole entry): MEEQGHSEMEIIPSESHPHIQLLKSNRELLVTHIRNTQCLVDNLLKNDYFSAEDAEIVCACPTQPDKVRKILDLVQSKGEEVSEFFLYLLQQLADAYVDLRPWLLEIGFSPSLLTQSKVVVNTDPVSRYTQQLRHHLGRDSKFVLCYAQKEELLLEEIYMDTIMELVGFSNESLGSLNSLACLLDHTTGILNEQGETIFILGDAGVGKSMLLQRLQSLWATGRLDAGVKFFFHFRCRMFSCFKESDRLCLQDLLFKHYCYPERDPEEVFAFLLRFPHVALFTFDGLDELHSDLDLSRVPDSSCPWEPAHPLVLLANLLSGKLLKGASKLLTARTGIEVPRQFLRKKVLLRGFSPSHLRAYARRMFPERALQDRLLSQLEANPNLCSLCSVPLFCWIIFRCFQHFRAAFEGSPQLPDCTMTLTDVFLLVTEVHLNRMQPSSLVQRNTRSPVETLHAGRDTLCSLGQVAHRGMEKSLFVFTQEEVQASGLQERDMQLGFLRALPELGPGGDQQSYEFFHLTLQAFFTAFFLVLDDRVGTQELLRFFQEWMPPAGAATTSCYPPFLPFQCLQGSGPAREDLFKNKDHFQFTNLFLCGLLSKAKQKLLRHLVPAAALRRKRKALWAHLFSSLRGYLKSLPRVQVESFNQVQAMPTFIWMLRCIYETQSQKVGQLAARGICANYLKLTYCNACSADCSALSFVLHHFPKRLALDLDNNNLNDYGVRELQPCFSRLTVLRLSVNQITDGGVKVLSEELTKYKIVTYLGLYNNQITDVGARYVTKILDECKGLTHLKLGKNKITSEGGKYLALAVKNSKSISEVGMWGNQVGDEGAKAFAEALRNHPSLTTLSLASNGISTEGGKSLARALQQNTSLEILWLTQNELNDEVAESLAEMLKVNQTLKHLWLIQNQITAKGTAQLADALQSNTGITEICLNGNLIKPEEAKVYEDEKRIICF
The experiment can be described thus: NOD1 signaling inhibitors, SAR follow-up, revised (AID 2333). The format is functional.

For another experiment, the system named is HEK293. The experiment can be described thus: cells. The settings on record: Homo sapiens.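 Note: cells exposed to compound for 14 hours overnight before viability readout.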

Sequence of FAD-linked sulfhydryl oxidase ALR (P55789 whole entry): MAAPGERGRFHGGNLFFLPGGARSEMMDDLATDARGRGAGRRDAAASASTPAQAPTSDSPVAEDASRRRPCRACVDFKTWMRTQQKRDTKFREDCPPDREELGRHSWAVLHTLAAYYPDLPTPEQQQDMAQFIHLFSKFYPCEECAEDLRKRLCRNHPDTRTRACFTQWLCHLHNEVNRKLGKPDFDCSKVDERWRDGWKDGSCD
Sequence of Procathepsin L (P07711 whole entry): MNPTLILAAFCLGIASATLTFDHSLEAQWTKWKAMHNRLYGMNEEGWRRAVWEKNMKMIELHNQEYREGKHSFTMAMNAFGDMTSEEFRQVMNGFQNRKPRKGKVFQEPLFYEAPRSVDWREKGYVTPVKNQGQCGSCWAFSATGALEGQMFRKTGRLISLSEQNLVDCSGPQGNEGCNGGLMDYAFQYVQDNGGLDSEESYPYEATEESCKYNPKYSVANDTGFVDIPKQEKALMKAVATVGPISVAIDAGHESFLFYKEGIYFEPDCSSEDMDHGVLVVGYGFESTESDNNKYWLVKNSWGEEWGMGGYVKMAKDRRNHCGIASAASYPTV

As for `O=[N+]([O-])c1c(O)nc(/C=C\c2ccc(O)c(O)c2)nc1O`, the results for the EC50 in [1] and in experiment [2] were 250 µM (active) and 179 µM (active), respectively. The IC50 at Aspartyl aminopeptidase is 670 nM (active); against Procathepsin L it was > 59.6 µM (not active); at Large T antigen it was 4.72 µM (active); in experiment [3], 1.04 µM (active); in experiment [5], 1.12 µM (active); in experiment [6], 4.34 µM (active). For the same compound, the IC50 in experiment [7] was 36.1 µM (active). Besides, the AC50 in experiment [4] was 1.05 µM (active).

In the case of `Cc1ccc(Cl)c2c(C3=NC(=S)NC3=O)c(O)[nH]c12`, the EC50 is 14.3 µM (active) in [1], 0.294 µM (inconclusive) in experiment [2] and > 260 µM (inactive) in [8]. In addition, the IC50 is 0.206 µM (active) in experiment [3], 0.211 µM (active) in experiment [5], > 100 µM (inactive) in experiment [6] and 61.5 µM (active) on Genome polyprotein.

Take `CC1Cc2cc(S(=O)(=O)N3CCN(c4ccccc4)CC3)ccc2N1C(=O)C1CC1` (stereo not given): the IC50 is 15.3 µM (active) on Tumor necrosis factor, > 20 µM (inactive) in [9] and > 20 µM (inactive) with HEK293.

The values above are taken from ChEMBL document CHEMBL1201862, “PubChem BioAssay data set” (2004).
